Measured values published in patent US20250059139A1, “COMPOUNDS FOR TREATMENT OF CANCER” (THE JOHNS HOPKINS UNIVERSITY, priority 2021, published 2025).

Target: T1, fl-HDAC4 (Homo sapiens, UniProt P56524)
T1 construct: Full-length (fl) [A.A. 1-1082] recombinant human histone deacetylase 4 (rhHDAC4) protein; FLAG (N); GST (given as 'with or without'); made in house; host or cells: HEK293-T
Assay: HDAC4 enzymatic assay with Lys(Tfa)-AMC substrate
Format: biochemical
Protocol: HDAC4 Enzymatic Assay. HDAC4 activity of the various recombinant forms used through these studies was assayed using the small non-protein Lys(Tfa)-AMC as described previously (Bottomley et al. J. Biol. Chem. 2008, 283:26694-26704). The specificity of this assay is documented via its inhibition by a small molecule trifluoroacetylthiophene-trifluoromethylketone derivative (TFT-PIP) described previously (id.).
Thus, TasQ's inhibition of HDAC4/NCoR1 formation involves only its binding to HDAC4. To resolve whether such TasQ binding involves the ZCD vs. ZRD in HDAC4, we took advantage of the fact that while HDAC4 has only marginal deacetylase activity against acetylated lysine-containing proteins, it can deacetylate a small non-protein trifluoroacetamide substrate (a.k.a., Lys(Tfa)-AMC). This reaction is inhibited by a small molecule trifluoroacetylthiophene-trifluoromethylketone derivative [a.k.a., TFT-PIP (FIG. 16)] due to its binding to the catalytic Zn^2+ in the ZCD, which locks the ZRD in the open conformation (Bottomley 2008).

T1 sequence (P56524 whole entry): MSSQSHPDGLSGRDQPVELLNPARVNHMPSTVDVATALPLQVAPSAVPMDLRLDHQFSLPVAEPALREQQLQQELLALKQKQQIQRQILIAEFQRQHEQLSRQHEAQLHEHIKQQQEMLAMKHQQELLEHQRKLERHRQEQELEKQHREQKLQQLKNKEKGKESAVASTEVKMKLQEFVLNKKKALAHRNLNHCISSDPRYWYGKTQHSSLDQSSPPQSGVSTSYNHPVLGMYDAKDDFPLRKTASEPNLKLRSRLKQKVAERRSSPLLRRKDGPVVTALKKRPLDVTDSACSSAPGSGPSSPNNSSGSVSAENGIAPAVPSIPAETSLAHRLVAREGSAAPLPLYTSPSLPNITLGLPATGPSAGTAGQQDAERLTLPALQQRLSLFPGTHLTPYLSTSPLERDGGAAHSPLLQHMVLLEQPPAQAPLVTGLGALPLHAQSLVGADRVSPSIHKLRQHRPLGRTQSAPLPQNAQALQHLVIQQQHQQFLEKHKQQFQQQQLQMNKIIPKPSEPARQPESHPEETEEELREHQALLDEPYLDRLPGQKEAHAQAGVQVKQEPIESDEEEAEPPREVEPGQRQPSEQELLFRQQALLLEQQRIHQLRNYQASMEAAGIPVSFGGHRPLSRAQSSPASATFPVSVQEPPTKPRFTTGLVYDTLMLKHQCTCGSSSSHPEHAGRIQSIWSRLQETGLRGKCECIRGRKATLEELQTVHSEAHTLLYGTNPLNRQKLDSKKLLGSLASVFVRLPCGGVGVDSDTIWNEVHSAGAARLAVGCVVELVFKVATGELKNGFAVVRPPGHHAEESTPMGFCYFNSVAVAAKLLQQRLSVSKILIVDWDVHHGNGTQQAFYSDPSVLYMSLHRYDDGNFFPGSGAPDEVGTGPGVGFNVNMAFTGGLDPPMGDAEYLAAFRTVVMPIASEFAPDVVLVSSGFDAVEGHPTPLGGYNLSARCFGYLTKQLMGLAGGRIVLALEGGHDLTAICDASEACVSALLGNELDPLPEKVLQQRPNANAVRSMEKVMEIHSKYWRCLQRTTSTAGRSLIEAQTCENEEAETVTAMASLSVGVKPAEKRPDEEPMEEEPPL

With `O=C(c1ccc(C(=O)C(F)(F)F)s1)N1CCn2c(-c3ccccc3)cnc2C1` [TFT-PIP] the “effect on enzymatic activity of fl-HDAC4” value was “inhibited”.
